Reference: the NIST ThermoML archive (doi:10.1021/je7003148)

Assay: cn = amount concentration of the nth substance listed, in mol/dm3
Conditions: 298 K; for surface tension liquid-gas: Ring tensiometer; for kinematic viscosity / speed of sound / mass density: 101.33 kPa, Liquid; for kinematic viscosity: Capillary tube (Ostwald / Ubbelohde) method; for speed of sound: Sing-around technique in a fixed-path interferometer

CCCCCCCCCCCCCCCCCC[N+](C)(C)C.[Br-] [N,N,N-trimethyl-1-octadecanaminium bromide] + O
Conditions | kinematic viscosity [m2/s] | mass density [kg/m3] | speed of sound [m/s] | surface tension liquid-gas [mN/m]
c1 = 0.001 | 8.957e-07 | 997.053 | 1497.2 | 62.3
c1 = 0.002 | 8.958e-07 | 997.053 | 1497.7 | 54.2
c1 = 0.003 | 8.958e-07 | 997.053 | 1498 | 48.7
c1 = 0.004 | 8.958e-07 | 997.053 | 1498.2 | 45
c1 = 0.005 | 8.959e-07 | 997.053 | 1498 | 42.8
c1 = 0.006 | 8.959e-07 | 997.054 | 1497.8 | 42
c1 = 0.008 | 8.96e-07 | 997.054 | 1497.2 | 41.4
c1 = 0.01 | 8.96e-07 | 997.054 | 1496.7 | 41.3
c1 = 0.013 | 8.961e-07 | 997.054 | 1496 | 41
c1 = 0.016 | 8.962e-07 | 997.054 | 1495.2 | 40.8
c1 = 0.02 | 8.963e-07 | 997.055 | 1494.2 | 40.4
c1 = 0.025 | 8.965e-07 | 997.055 | 1492.7 | 40.2
c1 = 0.03 | 8.966e-07 | 997.056 | 1491.6 | 39.6
c1 = 0.04 | 8.969e-07 | 997.057 | 1489.2 | 39.3

CCCCCCCCCCCCCC[N+](C)(C)C.[Br-] [tetradecyltrimethylammonium bromide] + O
Conditions | kinematic viscosity [m2/s] | mass density [kg/m3] | speed of sound [m/s] | surface tension liquid-gas [mN/m]
c1 = 0.001 | 8.962e-07 | 997.062 | 1496.9 | 60.4
c1 = 0.002 | 8.968e-07 | 997.064 | 1497.2 | 51.7
c1 = 0.003 | 8.991e-07 | 997.087 | 1497.3 | 44
c1 = 0.005 | 9.015e-07 | 997.106 | 1497.4 | 40.6
c1 = 0.01 | 9.078e-07 | 997.153 | 1497.5 | 38
c1 = 0.015 | 9.144e-07 | 997.204 | 1497.6 | 37.8
c1 = 0.02 | 9.215e-07 | 997.268 | 1497.7 | 37.6
c1 = 0.025 | 9.29e-07 | 997.307 | 1497.8 | 37.4
c1 = 0.03 | 9.368e-07 | 997.349 | 1497.8 | 37.1
c1 = 0.035 | 9.45e-07 | 997.402 | 1497.9 | 37
c1 = 0.04 | 9.537e-07 | 997.458 | 1497.9 | 36.9
c1 = 0.045 | 9.627e-07 | 997.5 | 1498 | 36.8
c1 = 0.05 | 9.722e-07 | 997.545 | 1498.1 | 36.7
c1 = 0.055 | 9.82e-07 | 997.604 | 1498.1 | 36.7

O [water] + CCCCCCCCCCCCCCCCCC[N+](C)(C)C.[Br-]
c2 = 0
Conditions | kinematic viscosity [m2/s] | surface tension liquid-gas [mN/m]
– | 8.957e-07 | 72.5

O [water] + CCCCCCCCCCCCCC[N+](C)(C)C.[Br-]
c2 = 0
Conditions | kinematic viscosity [m2/s] | surface tension liquid-gas [mN/m]
– | 8.957e-07 | 72.5
